Measurements from ChEMBL document CHEMBL1933061, “Discovery of a novel class of aldol-derived 1,2,3-triazoles: potent and selective inhibitors of human cytochrome P450 19A1 (aromatase)” (Bioorg Med Chem Lett, 2012).

Experiments:
Aromatase [1] = molecular target: T1, Aromatase (Homo sapiens, UniProt P11511); assay: Inhibition of human recombinant aromatase assessed as conversion of O-dibenzylfluorescein benzyl ester substrate to fluorescein byproduct by fluorometric assay; conditions: for inhibition (INH): human
T1 sequence (P11511 whole entry): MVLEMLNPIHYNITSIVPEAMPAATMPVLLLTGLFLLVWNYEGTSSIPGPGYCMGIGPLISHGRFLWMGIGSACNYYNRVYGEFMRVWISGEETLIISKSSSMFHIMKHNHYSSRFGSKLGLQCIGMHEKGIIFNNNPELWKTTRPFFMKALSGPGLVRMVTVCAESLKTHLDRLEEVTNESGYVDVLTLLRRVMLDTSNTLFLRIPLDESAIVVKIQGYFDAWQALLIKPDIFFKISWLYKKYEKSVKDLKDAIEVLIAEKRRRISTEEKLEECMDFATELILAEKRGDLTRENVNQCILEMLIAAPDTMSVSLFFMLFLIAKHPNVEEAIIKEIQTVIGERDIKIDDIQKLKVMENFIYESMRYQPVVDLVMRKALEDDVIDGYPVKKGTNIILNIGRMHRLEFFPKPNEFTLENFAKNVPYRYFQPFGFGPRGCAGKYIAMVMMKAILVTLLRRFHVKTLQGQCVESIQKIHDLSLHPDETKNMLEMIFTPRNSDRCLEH

Cytochrome P450 3A4 = Cytochrome P450 3A4 (Homo sapiens, UniProt P08684); assay: Inhibition of CYP3A4 at 10 uM; format: ADME
Cytochrome P450 1A1 = molecular target: T2, Cytochrome P450 1A1 (Homo sapiens, UniProt P04798); assay: Inhibition of CYP1A1; format: ADME
T2 sequence (P04798 whole entry): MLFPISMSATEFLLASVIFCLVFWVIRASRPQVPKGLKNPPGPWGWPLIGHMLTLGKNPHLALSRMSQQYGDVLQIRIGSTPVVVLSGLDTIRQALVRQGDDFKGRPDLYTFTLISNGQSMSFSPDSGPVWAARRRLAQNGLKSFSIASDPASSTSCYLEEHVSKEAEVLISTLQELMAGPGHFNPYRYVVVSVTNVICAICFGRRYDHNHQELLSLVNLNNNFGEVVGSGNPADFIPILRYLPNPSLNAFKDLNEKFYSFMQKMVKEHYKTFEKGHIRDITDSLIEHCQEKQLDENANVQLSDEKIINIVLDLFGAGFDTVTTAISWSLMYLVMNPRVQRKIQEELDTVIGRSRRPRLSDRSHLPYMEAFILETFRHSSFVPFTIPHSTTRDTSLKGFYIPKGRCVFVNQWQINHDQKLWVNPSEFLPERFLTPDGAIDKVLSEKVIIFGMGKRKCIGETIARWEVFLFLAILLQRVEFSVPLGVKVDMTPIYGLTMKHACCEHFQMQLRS

Aromatase [2] = molecular target: T1, Aromatase; assay: Inhibition of human recombinant aromatase assessed as conversion of O-dibenzylfluorescein benzyl ester substrate to fluorescein byproduct at 10 uM by fluorometric assay
Cytochrome P450 2D6 = Cytochrome P450 2D6 (Homo sapiens, UniProt P10635); assay: Inhibition of CYP2D6; format: ADME
Sequence of Cytochrome P450 2D6 (P10635 whole entry): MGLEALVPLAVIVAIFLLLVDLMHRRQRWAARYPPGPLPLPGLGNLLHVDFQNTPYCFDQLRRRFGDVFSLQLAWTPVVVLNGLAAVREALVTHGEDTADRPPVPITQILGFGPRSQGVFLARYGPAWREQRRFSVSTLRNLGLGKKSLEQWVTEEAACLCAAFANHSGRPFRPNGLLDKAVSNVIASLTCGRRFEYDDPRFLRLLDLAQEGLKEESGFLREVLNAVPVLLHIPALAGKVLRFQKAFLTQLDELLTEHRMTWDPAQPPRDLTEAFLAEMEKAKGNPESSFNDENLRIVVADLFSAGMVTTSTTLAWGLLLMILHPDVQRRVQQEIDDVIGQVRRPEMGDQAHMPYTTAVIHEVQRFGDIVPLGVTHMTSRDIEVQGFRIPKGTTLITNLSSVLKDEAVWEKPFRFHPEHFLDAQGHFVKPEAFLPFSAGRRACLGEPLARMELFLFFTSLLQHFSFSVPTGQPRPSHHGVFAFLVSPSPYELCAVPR

Sequence of Cytochrome P450 3A4 (P08684 whole entry): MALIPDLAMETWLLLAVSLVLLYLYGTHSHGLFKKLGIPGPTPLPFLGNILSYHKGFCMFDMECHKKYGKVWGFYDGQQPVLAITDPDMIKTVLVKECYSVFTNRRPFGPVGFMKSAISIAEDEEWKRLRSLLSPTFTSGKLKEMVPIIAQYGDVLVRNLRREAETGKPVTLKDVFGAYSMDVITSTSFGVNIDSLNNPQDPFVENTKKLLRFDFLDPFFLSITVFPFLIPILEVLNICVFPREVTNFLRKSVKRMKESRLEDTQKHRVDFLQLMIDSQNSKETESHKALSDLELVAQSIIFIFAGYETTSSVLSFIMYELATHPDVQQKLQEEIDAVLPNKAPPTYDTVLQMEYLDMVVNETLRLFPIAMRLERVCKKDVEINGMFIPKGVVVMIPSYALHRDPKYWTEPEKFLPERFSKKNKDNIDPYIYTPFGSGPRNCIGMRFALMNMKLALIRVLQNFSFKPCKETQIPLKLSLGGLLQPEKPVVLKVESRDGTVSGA

Row | Compound | Ki (Aromatase [1]) [µM] | inhibition (INH) (Cytochrome P450 3A4) | inhibition (INH) (Aromatase [2]) | also measured
1 | O=C(c1ccccc1)C(Cn1ccnn1)c1ccccc1 (stereo unspecified) | 1 | Not Active |  | Ki (Cytochrome P450 1A1): 5.37 µM
2 | COCO[C@@H](c1ccccc1)[C@@H](CN=[N+]=[N-])c1ccccc1 (relative stereo) |  |  | Not Active | inhibition (INH) (Aromatase [1]): Not Active
3 | COCO[C@@H](c1ccccc1)[C@@H](Cn1cc([Si](C)(C)C)nn1)c1ccccc1 (relative stereo) |  |  | Not Active | inhibition (INH) (Aromatase [1]): Not Active
4 | COCO[C@@H](c1ccccc1)[C@@H](Cn1ccnn1)c1ccccc1 (relative stereo) | 0.79 |  |  | Ki (Cytochrome P450 2D6): 1120 µM
5 | O[C@@H](c1ccccc1)[C@@H](Cn1ccnn1)c1ccccc1 (relative stereo) |  |  | Not Active | 
6 | O=C(O[C@@H](c1ccccc1)[C@@H](Cn1ccnn1)c1ccccc1)c1ccccc1 (relative stereo) | 0.1 | Not Active |  | Ki (Cytochrome P450 1A1): 30.9 µM
7 | CC(=O)O[C@@H](c1ccccc1)[C@@H](Cn1ccnn1)c1ccccc1 (relative stereo) | 0.06 | Not Active |  | 
8 | COCO[C@@H](c1ccccc1)[C@@H](CN1CCOCC1)c1ccccc1 (relative stereo) |  |  | Not Active | 
9 | COCO[C@@H](c1ccccc1)[C@@H](CN)c1ccccc1 (relative stereo) |  |  | Not Active | 
10 | COCO[C@H](c1ccccc1)[C@@H](CN=[N+]=[N-])c1ccccc1 (relative stereo) |  |  | Not Active | 
11 | COCO[C@H](c1ccccc1)[C@@H](Cn1cc([Si](C)(C)C)nn1)c1ccccc1 (relative stereo) |  |  | Not Active | 
12 | COCO[C@H](c1ccccc1)[C@@H](Cn1ccnn1)c1ccccc1 (relative stereo) | 0.08 | Not Active |  | 
13 | O[C@H](c1ccccc1)[C@@H](Cn1ccnn1)c1ccccc1 (relative stereo) | 0.05 | Not Active |  | Ki (Cytochrome P450 2D6): 708 µM
14 | CC(=O)O[C@H](c1ccccc1)[C@@H](Cn1ccnn1)c1ccccc1 (relative stereo) | 0.25 | Not Active |  | 
